This experiment concerns the target T1, Chymotrypsin-C (Homo sapiens, UniProt Q99895).
T1 sequence (Q99895 whole entry): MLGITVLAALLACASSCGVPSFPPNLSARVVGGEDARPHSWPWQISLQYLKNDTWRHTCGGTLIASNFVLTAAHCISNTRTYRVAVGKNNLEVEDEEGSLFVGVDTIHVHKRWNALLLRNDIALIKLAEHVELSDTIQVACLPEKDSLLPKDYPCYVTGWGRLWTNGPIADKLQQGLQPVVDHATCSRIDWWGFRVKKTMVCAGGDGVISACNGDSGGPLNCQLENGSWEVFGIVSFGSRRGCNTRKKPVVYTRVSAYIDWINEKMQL
The experiment is described as follows: ChEBML_197813. An excerpt: Inhibitory activity against Serine protease chymotrypsin

In general, IC50 refers to the midpoint of a concentration-inhibition curve. Read a low IC50 as inhibition by little substance. As to `C=C(c1cccc(OC(=O)N[C@@H](CC(C)C)C(=O)N(CCN(Cc2ccc(C(=O)OC)cc2)Cc2ccc(C(=O)OC)cc2)Cc2ccc(Cl)cc2)c1)c1sc(=S)n(CC(=O)OCC)c1O` [4-{[(2-{(4-Chloro-benzyl)-[2-(3-{1-[3-ethoxycarbonylmethyl-4-oxo-2-thioxo-thiazolidin-(5Z)-ylidene]-ethyl}-phenoxycarbonylamino)-4-methyl-pentanoyl]-amino}-ethyl)-amino-methyl]di-benzoic acid methyl ester], the concentration for half-maximal inhibition (IC50) is 210 µM.

The record behind these values is BindingDB's records for doi:10.1016/s0960-894x(00)00610-7 (Institute of Molecular and Cell Biology, 2001).
